Patent publication US9957230B2, “Synergistic compositions” (Cadila Healthcare Limited, priority 2013, dated 2018)

Experiments:
Swiss albino mice = assay: Triglyceride lowering effects of various salts in Swiss albino mice; format: in vivo; conditions: dose equivalent to 1 mg/kg free acid; for Serum triglycerides (mg/dl) Day 0: Day 0 (pretreatment); for Serum triglycerides (mg/dl) Day 0 / Serum triglycerides (mg/dl) Day 6: male Swiss albino mice; for Serum triglycerides (mg/dl) Day 6: Day 6, one hr after dose; for % Change Vs control: serum triglycerides vs vehicle control after 6 days; for % Change Day 6 vs Day 0: serum triglycerides
Experimental: Comparative Efficacy Study of (Triglyceride Lowering Effects) of Various Salts of Compound (Ia) in Swiss Albino Mice.
The in-vivo efficacy of compound (I) was evaluated in Swiss albino mice. Anti-dyslipidemic drugs have been reported to lower circulating levels of triglyceride in Swiss albino mice through their effect on genes involved in the peroxisomal fatty acid beta oxidation via PPAR alpha agonism. Therefore, this species is preferred for evaluation of their efficacy in lowering circulating triglyceride (TG) levels.
In this experiment, six to eight week old male Swiss albino mice were issued and kept for acclimatization. Near the end of the acclimatization period, animals judged to be suitable for testing were bled under light ether anesthesia and serum samples were analyzed for Serum triglyceride levels.
Test compound was formulated at specified doses in vehicle (10% Polyethylene glycol (PEG) 400+90% of 0.5% Sodium Carboxy methyl cellulose). The animals were dosed orally, once daily in the morning during six days, starting from next day of grouping with vehicle or test compound. The animals were weighed prior to dosing, and based on these weights; the volume of administration was calculated. The volume of formulation administered to each mouse was 10 ml/kg body weight.
On day 6 one hr after the dose administration, blood (0.25 ml) was collected from retro-orbital sinus of the anaesthetized animals. Serum was separated by centrifugation. Serum was analyzed for triglyceride levels. Analysis for serum triglyceride levels was performed using a Spectrophotometer and commercially available kit. Calculations for determination of % change and % reduction in serum TG levels were performed using MS Excels sheet.

db/db mice = assay: Oral glucose tolerance test in db/db mice (studies I and II); format: in vivo; conditions: Table 12, Compound (Ia) 0.1 mg/kg, Metformin 150 mg/kg p.o.
Excerpt: 8. […] 8. The treatment was given oral gavages once daily for 14 days.
The OGTT procedure followed is as given below—

[1] = Table 5, oral once daily 6 days
[2] = Table 3, oral once daily 6 days

Row | Compound | Serum triglycerides (mg/dl) Day 0 (Swiss albino mice; [1]) [mg/dL] | Serum triglycerides (mg/dl) Day 6 (Swiss albino mice; [1]) [mg/dL] | % Change Vs control (Swiss albino mice; Table 5, oral) [%] | % Change Day 6 vs Day 0 (Swiss albino mice; [1]) [%] | Serum triglycerides (mg/dl) Day 0 (Swiss albino mice; Table 7, po once daily 6 days) [mg/dL] | Serum triglycerides (mg/dl) Day 6 (Swiss albino mice; Table 7, po once daily 6 days) [mg/dL] | % Change Vs control (Swiss albino mice; Table 7, po) [%] | % Change Day 6 vs Day 0 (Swiss albino mice; Table 7, po once daily 6 days) [%] | other results
1 | CCO[C@@H](Cc1ccc(OCCn2c(C)ccc2-c2ccc(SC)cc2)cc1)C(=O)O.c1ccc(CCNCc2ccccc2)cc1 [Benethamine salt of Formula (I), (S) 2-Ethoxy-3-(4-{2-[2-methyl-5-(4-methylthiophenyl)-pyrrol-1-yl]-ethoxy}-phenyl)-propionic acid Benethamine salt] | 91.6 ± 6.4 | 56.0 ± 4.9 | −41.6 ± 5.4 | −38.3 ± 5.7 | – | – | – | – | –
2 | CCO[C@@H](Cc1ccc(OCCn2c(C)ccc2-c2ccc(SC)cc2)cc1)C(=O)O.NCCO [Ethanolamine salt of Formula (I)] | – | – | – | – | 110.5 ± 7.5 | 42.5 ± 3.6 | −56.9 ± 3.6 | −61.3 ± 3.2 | –
3 | (S) 2-Ethoxy-3-(4-{2-[2-methyl-5-(4-methylthiophenyl)-pyrrol-1-yl]-ethoxy}-phenyl)-propionic acid Calcium Salt [Calcium Salt of Formula (I)] | – | – | – | – | – | – | – | – | Serum triglycerides (mg/dl) Day 0 (Swiss albino mice; [2]): 119.2 ± 11.1 mg/dL; Serum triglycerides (mg/dl) Day 6 (Swiss albino mice; [2]): 38.8 ± 3.2 mg/dL; % Change Vs control (Swiss albino mice; Table 3, oral): −66.4 ± 2.5%; % Change Day 6 vs Day 0 (Swiss albino mice; [2]): −66.8 ± 2.5%
4 | CCO[C@@H](Cc1ccc(OCCn2c(C)ccc2-c2ccc(SC)cc2)cc1)C(=O)O.OCCN(CCO)CCO [Triethanolamine salt of Formula (I)] | – | – | – | – | 110.3 ± 7.5 | 33.0 ± 2.6 | −65.3 ± 4.4 | −68.9 ± 3.9 | –
5 | (S) 2-Ethoxy-3-(4-{2-[2-methyl-5-(4-methylthiophenyl)-pyrrol-1-yl]-ethoxy}-phenyl)-propionic acid Zinc Salt [Zinc Salt of Formula (I)] | – | – | – | – | – | – | – | – | Serum triglycerides (mg/dl) Day 0 (Swiss albino mice; [2]): 119.1 ± 7.6 mg/dL; Serum triglycerides (mg/dl) Day 6 (Swiss albino mice; [2]): 68.6 ± 7.5 mg/dL; % Change Vs control (Swiss albino mice; Table 3, oral): −42.0 ± 4.2%; % Change Day 6 vs Day 0 (Swiss albino mice; [2]): −42.7 ± 4.2%
6 | CCO[C@@H](Cc1ccc(OCCn2c(C)ccc2-c2ccc(SC)cc2)cc1)C(=O)O.c1c[nH]cn1 [Imidazole salt of Formula (I), (S) 2-Ethoxy-3-(4-{2-[2-methyl-5-(4-methylthiophenyl)-pyrrol-1-yl]-ethoxy}-phenyl)-propionic acid imidazole salt] | – | – | – | – | 110.5 ± 7.2 | 43.5 ± 2.5 | −55.3 ± 3.6 | −59.8 ± 3.2 | –
7 | (S) 2-Ethoxy-3-(4-{2-[2-methyl-5-(4-methylthiophenyl)-pyrrol-1-yl]-ethoxy}-phenyl)-propionic acid L-arginine salt [L-arginine salt of Formula (I)] | 91.6 ± 7.9 | 37.2 ± 2.1 | −60.2 ± 3.9 | −58.0 ± 4.2 | – | – | – | – | –
8 | CCO[C@@H](Cc1ccc(OCCn2c(C)ccc2-c2ccc(SC)cc2)cc1)C(=O)O.OCCN1CCCC1 [Epolamine salt of Formula (I)] | – | – | – | – | 110.5 ± 7.5 | 39.6 ± 3.8 | −60.1 ± 2.6 | −64.2 ± 2.3 | –
9 | (S) 2-Ethoxy-3-(4-{2-[2-methyl-5-(4-methylthiophenyl)-pyrrol-1-yl]-ethoxy}-phenyl)-propionic acid Meglumine salt [Maglumine salt of Formula (I)] | – | – | – | – | 110.6 ± 9.1 | 32.4 ± 1.5 | −66.5 ± 2.5 | −70.0 ± 2.2 | –
10 | CCO[C@@H](Cc1ccc(OCCn2c(C)ccc2-c2ccc(SC)cc2)cc1)C(=O)[O-].[Na+] [Sodium Salt of Formula (I), (S) 2-Ethoxy-3-(4-{2-[2-methyl-5-(4-methylthiophenyl)-pyrrol-1-yl]-ethoxy}-phenyl)-propionic acid sodium salt] | – | – | – | – | – | – | – | – | Serum triglycerides (mg/dl) Day 0 (Swiss albino mice; [2]): 119.4 ± 11.9 mg/dL; Serum triglycerides (mg/dl) Day 6 (Swiss albino mice; [2]): 41.6 ± 1.8 mg/dL; % Change Vs control (Swiss albino mice; Table 3, oral): −63.1 ± 3.6%; % Change Day 6 vs Day 0 (Swiss albino mice; [2]): −63.5 ± 3.6%
11 | (S) 2-Ethoxy-3-(4-{2-[2-methyl-5-(4-methylthiophenyl)-pyrrol-1-yl]-ethoxy}-phenyl)-propionic acid L-Lysine salt [L-lysine salt of Formula (I)] | 91.2 ± 6.8 | 48.7 ± 3.3 | −48.7 ± 3.6 | −45.8 ± 3.8 | – | – | – | – | –
12 | CN(C)C(=N)N=C(N)N [Metformin, 1,1-Dimethylbiguanidine, reference compound] | – | – | – | – | – | – | – | – | % improvement in AUC glucose vs control (db/db mice; OGTT after 14 days of treatment): 20.4%; AUC Glucose (db/db mice; OGTT day 14, fasting, glucose load 2 gm/kg): 45255.9 mg·min/dL
13 | (S) 2-Ethoxy-3-(4-{2-[2-methyl-5-(4-methylthiophenyl)-pyrrol-1-yl]-ethoxy}-phenyl)-propionic acid Dibenzylamine salt [Dibenzylamine salt of Formula (I)] | 91.0 ± 6.7 | 42.1 ± 2.9 | −54.4 ± 5.8 | −51.8 ± 6.1 | – | – | – | – | –
14 | Benzenepropanoic acid, α-ethoxy-4-[2-[2-methyl-5-[4-(methylthio) phenyl]-1H -pyrrol-1-yl] ethoxy]-, magnesium salt [Compound (Ia)] | 91.4 ± 8.8 | 37.4 ± 3.2 | −60.5 ± 3.5 | −58.3 ± 3.7 | 111.1 ± 8.4 | 36.9 ± 2.9 | −61.5 ± 4.6 | −65.5 ± 4.2 | Serum triglycerides (mg/dl) Day 0 (Swiss albino mice; [2]): 117.7 ± 13.8 mg/dL; Serum triglycerides (mg/dl) Day 6 (Swiss albino mice; [2]): 38.2 ± 4.1 mg/dL; % Change Vs control (Swiss albino mice; Table 3, oral): −66.1 ± 4.2%; % Change Day 6 vs Day 0 (Swiss albino mice; [2]): −66.5 ± 4.1%
15 | (S) 2-Ethoxy-3-(4-{2-[2-methyl-5-(4-methylthiophenyl)-pyrrol-1-yl]-ethoxy}-phenyl)-propionic acid Tromethamine salt [Tromethamine salt of Formula (I)] | 91.2 ± 7.8 | 47.9 ± 4.9 | −46.9 ± 8.5 | −43.9 ± 9.0 | – | – | – | – | –
16 | CCO[C@@H](Cc1ccc(OCCn2c(C)ccc2-c2ccc(SC)cc2)cc1)C(=O)[O-].[K+] [Potassium Salt of formula (I), (S) 2-Ethoxy-3-(4-{2-[2-methyl-5-(4-methylthiophenyl)-pyrrol-1-yl]-ethoxy}-phenyl)-propionic acid potassium salt] | – | – | – | – | – | – | – | – | Serum triglycerides (mg/dl) Day 0 (Swiss albino mice; [2]): 119.0 ± 9.2 mg/dL; Serum triglycerides (mg/dl) Day 6 (Swiss albino mice; [2]): 44.8 ± 4.6 mg/dL; % Change Vs control (Swiss albino mice; Table 3, oral): −60.2 ± 6.0%; % Change Day 6 vs Day 0 (Swiss albino mice; [2]): −60.7 ± 6.0%
17 | (S) 2-Ethoxy-3-(4-{2-[2-methyl-5-(4-methylthiophenyl)-pyrrol-1-yl]-ethoxy}-phenyl)-propionic acid benzylamine salt [Benzylamine salt of Formula (I)] | 91.1 ± 10.8 | 36.5 ± 4.0 | −60.2 ± 5.8 | −57.9 ± 6.2 | – | – | – | – | –
18 | (S) 2-Ethoxy-3-(4-{2-[2-methyl-5-(4-methylthiophenyl)-pyrrol-1-yl]-ethoxy}-phenyl)-propionic acid piperazine salt [Piperazine salt of Formula (I)] | 91.0 ± 6.5 | 44.1 ± 1.9 | −52.8 ± 3.7 | −50.2 ± 4.0 | – | – | – | – | –
19 | CCO[C@@H](Cc1ccc(OCCn2c(C)ccc2-c2ccc(SC)cc2)cc1)C(=O)[O-].C[N+](C)(C)CCO [Choline salt of Formula (I), Choline Salt (i.e 2-Hydroxy-N,N,N-trimethylethanaminium hydroxide or choline hydroxide) of (S) 2-Ethoxy-3-(4-{2-[2-methyl-5-(4-methylthiophenyl)-pyrrol-1-ylethoxyphenylpropionic acid] | – | – | – | – | 110.9 ± 7.7 | 47.6 ± 3.4 | −51.0 ± 4.8 | −56.0 ± 4.3 | –
